{
  "source": "patent US5120726A",
  "about": "“Rapamycin hydrazones” (American Home Products Corporation, priority 1991, dated 1992)",
  "key": {"[1]": {"tested_on": "cells from the thymus of normal BALB/c mice (lymphocyte proliferation)", "test": "comitogen-induced thymocyte proliferation procedure (LAF), lymphocyte proliferation", "type": "cell-based", "settings": "for IC50: Mus musculus, Lymphocyte, read-out: LAF IC50; for LAF (ratio): ratio vs rapamycin", "method": "(§1) Immunosuppressive activity was evaluated in an in vitro standard pharmacological test procedure to measure lymphocyte proliferation (LAF) and in two in vivo standard pharmacological test procedures. The first in vivo procedure was a popliteal lymph node (PLN) test procedure which measured the effect of compounds of this invention on a mixed lymphocyte reaction and the second in vivo procedure evaluated the survival time of a pinch skin graft.\nBriefly, cells from the thymus of normal BALB/c mice are cultured for 72 hours with PHA and IL-1 and pulsed with tritiated thymidine during the last six hours. […] Cells are harvested and incorporated radioactivity is determined. Inhibition of lymphoproliferation is assessed as percent change in counts per minute from non-drug treated controls. The results are expressed by the following ratio, or as the percent inhibition of lymphoproliferation at 1 μM. [formula]"}, "[2]": {"tested_on": "pinch skin graft from male DBA/2 donors transplanted to male BALB/c recipients", "test": "survival time of pinch skin graft", "type": "in vivo", "settings": "intraperitoneally; mean ± S.D.", "method": "as §1\nThe second in vivo test procedure is designed to determine the survival time of pinch skin graft from male DBA/2 donors transplanted to male BALB/c recipients. The method is adapted from Billingham R. E. and Medawar P. B., J. Exp. Biol. 28:385-402, (1951). Briefly, a pinch skin graft from the donor is grafted on the dorsum of the recipient as a homograft, and an autograft is used as control in the same region. […] Untreated recipients serve as rejection control. The graft is monitored daily and observations are recorded until the graft becomes dry and forms a blackened scab. This is considered as the rejection day. The mean graft survival time (number of days±S.D.) of the drug treatment group is compared with the control group."}, "[3]": {"tested_on": "mixed lymphocyte reaction (popliteal lymph node)", "test": "popliteal lymph node (PLN) test procedure, effect on a mixed lymphocyte reaction", "type": "in vivo, C3H mice (BALB/c donors)", "settings": "ratio vs rapamycin; p.o. daily Day 0 to Day 4", "method": "as §1\nA mixed lymphocyte reaction (MLR) occurs when lymphoid cells from genetically distinct animals are combined in tissue culture. Each stimulates the other to undergo blast transformation which results in increased DNA synthesis that can be quantified by the incorporation of tritiated thymidine. Since stimulating a MLR is a function of disparity at Major Histocompatibility antigens, an in vivo popliteal lymph node (PLN) test procedure closely correlates to host vs. graft disease. Briefly, irradiated spleen cells from BALB/c donors are injected into the right hind foot pad of recipient C3H mice. The drug is given daily, p.o. from Day 0 to Day 4. On Day 3 and Day 4, tritiated thymidine is given i.p., b.i.d. On Day 5, the hind popliteal lymph nodes are removed and dissolved, and radioactivity counted. […] Percent suppression is calculated using the non-drug treated animals as allogenic control. […]"}, "[4]": {"tested_on": "Candida albicans", "settings": "both in vitro and in vivo; cited from earlier work"}, "[5]": {"tested_on": "adjuvant arthritis", "settings": "in vivo; cited from earlier work"}, "[6]": {"tested_on": "organ grafts in histoincompatible rodents", "settings": "cited from earlier work"}, "[7]": {"tested_on": "T-cell activation", "settings": "cited from earlier work"}, "[8]": {"settings": "thymocytes cultured 72 hours with PHA and IL-1, tritiated thymidine last six hours"}},
  "note": "Read-outs that look alike come from different tables or passages of the source.",
  "data": [
    {"smiles": "CO[C@H]1C[C@@H]2CC[C@@H](C)[C@@](O)(O2)C(=O)C(=O)N2CCCC[C@H]2C(=O)O[C@H]([C@H](C)C[C@@H]2CC[C@@H](O)[C@H](OC)C2)CC(=NNC(C)=O)[C@H](C)/C=C(\\C)[C@@H](O)[C@@H](OC)C(=O)[C@H](C)C[C@H](C)/C=C/C=C/C=C/1C", "note": "[Example 1, Rapamycin 27-(methylcarbonyl hydrazone)]", "values": [
      {"measurement": "IC50", "setting": "[1]; [8]", "value": 17.3, "unit": "nM"},
      {"measurement": "LAF (ratio)", "setting": "[1]; [8]", "value": 0.50},
      {"measurement": "Skin Graft survival time (days + SD)", "setting": "[2]", "value": "10.50 ± 0.6", "unit": "days"}
    ]},
    {"smiles": "CO[C@H]1C[C@@H]2CC[C@@H](C)[C@@](O)(O2)C(=O)C(=O)N2CCCC[C@H]2C(=O)O[C@H]([C@H](C)C[C@@H]2CC[C@@H](O)[C@H](OC)C2)CC(=NNC(N)=O)[C@H](C)/C=C(\\C)[C@@H](O)[C@@H](OC)C(=O)[C@H](C)C[C@H](C)/C=C/C=C/C=C/1C", "note": "[Example 4, Rapamycin 27-semicarbazone]", "values": [
      {"measurement": "IC50", "setting": "[1]; [8]", "value": 37.2, "unit": "nM"},
      {"measurement": "LAF (ratio)", "setting": "[1]; [8]", "value": 0.24},
      {"measurement": "PLN (ratio)", "setting": "[3]", "value": 1.07}
    ]},
    {"smiles": "CO[C@H]1C[C@@H]2CC[C@@H](C)[C@@](O)(O2)C(=O)C(=O)N2CCCC[C@H]2C(=O)O[C@H]([C@H](C)C[C@@H]2CC[C@@H](O)[C@H](OC)C2)CC(=NNC(=O)Nc2ccccc2)[C@H](C)/C=C(\\C)[C@@H](O)[C@@H](OC)C(=O)[C@H](C)C[C@H](C)/C=C/C=C/C=C/1C", "note": "[Example 2, Rapamycin 27-(4-Phenylsemicarbazone)]", "values": [
      {"measurement": "IC50", "setting": "[1]; [8]", "value": 19.2, "unit": "nM"},
      {"measurement": "LAF (ratio)", "setting": "[1]; [8]", "value": 0.45},
      {"measurement": "Skin Graft survival time (days + SD)", "setting": "[2]", "value": "7.83 ± 1.3", "unit": "days"}
    ]},
    {"smiles": "CO[C@H]1C[C@@H]2CC[C@@H](C)[C@@](O)(O2)C(=O)C(=O)N2CCCC[C@H]2C(=O)O[C@H]([C@H](C)C[C@@H]2CC[C@@H](O)[C@H](OC)C2)CC(=NNc2ccccn2)[C@H](C)/C=C(\\C)[C@@H](O)[C@@H](OC)C(=O)[C@H](C)C[C@H](C)/C=C/C=C/C=C/1C", "note": "[Example 3, Rapamycin 27-(2-Pyridinylhydrazone)]", "values": [
      {"measurement": "IC50", "setting": "[1]; [8]", "value": 15.9, "unit": "nM"},
      {"measurement": "LAF (ratio)", "setting": "[1]; [8]", "value": 0.55}
    ]},
    {"smiles": "CO[C@H]1C[C@@H]2CC[C@@H](C)[C@@](O)(O2)C(=O)C(=O)N2CCCC[C@H]2C(=O)O[C@H]([C@H](C)C[C@@H]2CC[C@@H](O)[C@H](OC)C2)CC(=O)[C@H](C)/C=C(\\C)[C@@H](O)[C@@H](OC)C(=O)[C@H](C)C[C@H](C)/C=C/C=C/C=C/1C", "note": "[Rapamycin]", "values": [
      {"measurement": "IC50", "setting": "[1]", "value": "8.5 to 8.8", "unit": "nM"},
      {"measurement": "PLN (ratio)", "setting": "[3]", "value": 1},
      {"measurement": "Skin Graft survival time (days + SD)", "setting": "[2]", "value": "12.0 ± 1.7", "unit": "days"},
      {"measurement": "antifungal activity", "setting": "[4]", "value": "antifungal activity, particularly against Candida albicans, both in vitro and in vivo"},
      {"measurement": "effect in adjuvant arthritis model", "setting": "[5]", "value": "effective"},
      {"measurement": "survival time of organ grafts", "setting": "[6]", "value": "prolong survival time of organ grafts in histoincompatible rodents"},
      {"measurement": "inhibition of T-cell activation", "setting": "[7]", "value": "inhibit T-cell activation"}
    ]}
  ]
}
